Assay results taken from patent US20080076824A1, “Compounds That Inhibit Replication Of Human Immunodeficiency Virus” (priority 2004, published 2008).
Values joined by “and” are separate entries in the source; they are usually repeats but may differ in a detail not shown here. Identical values can stand only once. “Also recorded” adds a separate entry of the source. Like-named read-outs stand apart in the source and are kept apart here. Non-standard residues stand in square brackets, D forms with d. Residues, ends and D or L forms follow the SMILES beside them. Sar = CNCC(=O)O

What was measured:
[1] = system: HIV-1 (IIIB); test: microbe, parasite or virus in culture; conditions: Human immunodeficiency virus 1, IIIB, CCRF-CEM
[2] = system: HIV-1 (IIIB); conditions: for EC50: CEM cell cultures
[3] = system: HIV (SF2 virus); test: HIV infectivity assay, SF2-infected H9 cells, visible syncytia; type: cell-based; conditions: for Visible syncytia: H9/SF2, day 11
[4] = system: HIV (SF2 virus); test: HIV infectivity assay, SF2-infected H9 cells, p24 quantification; type: cell-based; conditions: for OD1: replicates (1)-(3)
Experimental: The remaining wells were filled with sterile distilled water. The cell culture plates were incubated at 37° C. and 5% CO2. After four days the medium was changed, after eight days the medium was changed and the cells were collected. After 11 days, the infection was stopped, the cells were viewed in a 10× magnification microscope and 650 μl of each cell supernatant was collected and frozen at −80° C. for further analysis. After five more days, the supernatants were thawed and used in a conventional reverse transcriptase (RT) activity assay (e.g., Roche AMPLICOR MONITOR™) or a p24 quantification assay (e.g., Abbott Laboratories, Chicago). (See U.S. Pat. No. 6,258,932 and U.S. patent application Ser. No. 10/235,158, both of which are hereby expressly incorporated by reference in its entireties).
[…] The cells in the samples were counted and then centrifuged. The cells were then resuspended in 10 ml of RPMI 1640 (containing fetal calf serum) and either […] Metabolite X or 100 μM GPG-NH2. Uninfected control and untreated control samples were also included in the experiment. The samples were then incubated overnight at 37° C. at 5% CO2.
Then, the amount of p24 in the samples was analysed using a conventional p24 detection assay (see U.S. Pat. No. 6,258,932).
Three replicate samples (“replicates”) of uninfected samples and untreated samples were also included in the experiment as controls. The inhibition of HIV replication was monitored by quantifying the levels of p24 using a conventional detection kit.
Three replicates of unninfected samples and untreated samples were also included in the experiment as controls.

[5] = system: HIV (SF2 virus); test: HIV infectivity assay, SF2-infected H9 cells, reverse transcriptase (RT) quantification in supernatant; type: cell-based; conditions: for inhibition of HIV replication, reverse transcriptase (RT) activity: cultures containing boiled fetal calf serum
[6] = system: HIV-2(ROD); test: microbe, parasite or virus in culture; conditions: Human immunodeficiency virus 2, MT4, read-out: EC50 (MT-4) HIV-2 (ROD), Table 19
Experimental: (§1) MT-4, C8166 or CEM cells (4 to 5×10^5 cells per ml) were suspended in fresh culture medium (RPMI-1640 medium supplemented with 10% fetal bovine serum (FBS) (BioWittaker Europe, Verviers, Belgium), 2 mM L-glutamine and […] NaHCO3). Subsequently, the cells were infected with HIV-1 (IIIB) or HIV-2(ROD) at ˜100 CCID50 (1 CCID50 being the dose infective for 50% of the cell cultures) per ml of cell suspension. Then, 100 μl of the infected cell suspension were transferred to 96-well microplate wells, mixed with 100 μl of the appropriate (5-fold) dilutions of the test compounds and further incubated at 37° C. After 4 to 5 days, giant cell formation was recorded microscopically in the CEM and C8166 cell cultures. The MT-4 cell cultures were treated with trypan blue and the number of viable cells was determined.

[7] = system: HIV-1 (IIIB); test: microbe, parasite or virus in culture; conditions: Human immunodeficiency virus 1, IIIB, MT4, read-out: EC50 (MT-4) HIV-1 (IIIB)
Experimental: as §1

[8] = in vitro; conditions: human
[9] = system: HIV-2 (EHO)
Experimental: (§2) Human T-lymphocytic CEM cells (4.5×10^5 cells per ml) were suspended in fresh cell culture medium and infected with HIV-1 (IIIB and NL4.3) or HIV-2 (ROD or EHO) at 100 CCID50 (1 CCID50 being the virus dose infective for 50% of the cell cultures) per ml of cell suspension. Then, 100 μl of the infected cell suspension were transferred to microplate wells, mixed with 100 μl of appropriate (freshly prepared) dilutions of the test compounds (i.e., at final concentrations of […]), and were further incubated at 37° C. After 4 to 5 days, giant cell formation was recorded microscopically in the CEM cell cultures.

[10] = system: HIV-1 (NL4.3); conditions: read-out: EC50 HIV-1 NL3.4; CEM cell cultures, syncytia formation
Experimental: as §2

[11] = system: HIV-2 (ROD); test: microbe, parasite or virus in culture; type: cell-based; conditions: 2 (ROD)
Experimental: as §2, with “cultures. […] (See Table 1).” for “cultures.”
as §1

[12] = read-out: EC50 against HIV-1(IIIB), CEM cell cultures, Table 2
[13] = read-out: EC50 against HIV-1(IIIB), Table 2
[14] = read-out: EC50 HIV-1 IIIB, syncytia formation, Table 1

`N=C(N)NCCC[C@H](N)C(N)=O` [L-Argininamide] showed an EC50 [1, 12] of over 500 µM.
With `NC(=O)C[C@H](N)C(N)=O` [L-Asparaginamide, reference compound] the EC50 [2, 13] was over 1000 µM and the EC50 [1, 12] was over 500 µM.
With `CC[C@H](C)[C@H](N)C(N)=O` [L-Isoleucinamide] the EC50 [1, 12] was over 500 µM.
Work on `CC(C)C[C@H](N)C(N)=O` [L-Leucinamide] yielded an EC50 [1, 12] of over 500 µM.
Work on `CC(C)C[C@H](N)C(=O)O` [L-Leucine] yielded an EC50 [1, 12] of over 500 µM.
`NCCCC[C@H](N)C(N)=O` [L-Lysinamide] showed an EC50 ([1]; read-out: EC50 against HIV-1(IIIB)) of over 500 µM.
In the case of `CSCC[C@H](N)C(N)=O` [L-Methioninamide], the EC50 [1, 12] is reported as over 500 µM.
For `NC(=O)[C@@H](N)Cc1ccccc1` [L-Phenylalaninamide], the EC50 [1, 12] was over 500 µM.
For `NC(=O)[C@@H]1CCCN1` [L-Prolinamide], the EC50 [1, 12] was over 1000 µM.
`O=C(O)[C@@H]1CCCN1` [L-Proline] gave an EC50 [1, 12] of over 500 µM.
Compound `NC(=O)[C@@H](N)CO` [L-Serinamide] has an EC50 [1, 12] of over 1000 µM.
Compound `C[C@@H](O)[C@H](N)C(N)=O` [L-Threoninamide] has an EC50 [1, 12] of over 500 µM.
For `NC(=O)[C@@H](N)Cc1c[nH]c2ccccc12` [L-Tryptophanamide], the EC50 [1, 12] was over 200 µM.
In the case of `NC(=O)[C@@H](N)Cc1ccc(O)cc1` [L-Tyrosinamide], the EC50 [1, 12] is reported as over 500 µM.
`CC(C)[C@H](N)C(=O)Nc1ccc2ccccc2c1` [L-Val β-naphthylamide, reference compound] gave an EC50 [2, 13] of over 100 µM.
With `CC(C)[C@H](N)C(N)=O` [L-Valinamide] the EC50 [1, 12] was over 500 µM.
In the case of `NC(=O)C(N)O` (stereo not drawn) [Met-X, α-hydroxyglycinamide], the Visible syncytia ([3]; 100 μM in boiled RPMI++) is reported as “negative”, the Visible syncytia ([3]; 100 μM in normal RPMI++ (10% FCS)) is reported as “negative” and the Visible syncytia ([3]; 500 μM in boiled RPMI++) is reported as “negative”. For the same compound, the Visible syncytia ([3]; 500 μM in normal RPMI++ (10% FCS)) was “negative”, the “inhibition of replication and/or propagation of HIV by visual inspection” value ([3]; boiled fetal calf serum) was “effectively inhibited” and the “inhibition of replication of HIV” value ([2]; boiled fetal bovine serum or human serum samples, results the experiments will show) was “efficiently inhibits replication of HIV”. For the same compound, the OD1 ([4]; 50 μM, fetal calf serum) was 1.105 and 1.895 and 2.351, the “conc p24” value ([4]; 50 μM, human serum) was 457.33 ng/mL and 427.85 ng/mL and 261.05 ng/mL and the OD1 ([4]; 100 μM, fetal calf serum) was 0.193 and 0.081 and 0.144. For the same compound, the “inhibition of HIV replication, p24” value ([4]; 100 μM, presence of fetal calf serum) was “effectively inhibited HIV replication”, the “inhibition of HIV, accumulation of p24, compared with reference” value ([4]; fetal calf serum) was “as effectively as GPG-NH2; also recorded: as effectively as G-NH2” and the “inhibition of HIV replication, accumulation of p24” value ([4]; human serum) was “inhibited HIV replication in human serum”. The “inhibition of HIV replication, accumulation of p24” value ([4]; human serum, listed as Metabolite X) was “effective inhibitors of HIV replication in human serum”, the “reverse transcriptase activity in treated samples” value ([5]; 100 μM, fetal calf serum) was “no reverse transcriptase activity” and the “inhibition of HIV replication, reverse transcriptase (RT) activity” value [5] was “inhibited the replication of HIV”. For the same compound, the “inhibition of HIV replication, reverse transcriptase (RT) activity” value ([5]; listed as Metabolite X) was “effectively inhibited replication HIV” and the “concentration at which inhibition of HIV replication is virtually complete” value ([5]; fetal bovine serum, 10 days) was at least 15.6 µM.
With `NC(=O)C(N)=O` [Oxamide, Oxamide (H2NCOCONH2), reference compound] the EC50 [6] was over 500 µM, the EC50 [7] was over 500 µM and the EC50 ([1]; read-out: EC50 (CEM) HIV-1 (IIIB), Table 19) was over 500 µM.
`NC(=O)CC[C@H](N)C(=O)N1CCC[C@H]1C(=O)NCC(N)=O` [Q-PG-NH2, glutaminylprolylglycinamide] (H-Gln-Pro-Gly-NH2) gave an EC50 [2, 14] of 86 µM, an EC50 [8] of over 1500 µM and an EC50 [9] of 82 µM. The EC50 [10] was 265 µM and the EC50 [11] was 89 µM.
For `CNCC(=O)N1CCC[C@H]1C(=O)NCC(N)=O` [SAR-PG-NH2, sarcosinylprolylglycinamide] (H-[Sar]-Pro-Gly-NH2), the EC50 [2, 14] was 31 ± 4.9 µM, the EC50 [8] was over 1500 µM and the EC50 [9] was 56 µM. It also gave an EC50 [10] of 49 µM and an EC50 [11] of 35 ± 9.8 µM.
With `CNCC(N)=O` [Sarcosinamide] the EC50 [1, 12] was over 1000 µM.
